Among the test systems are SK-MEL-2 melanoma; HCC-2998 colon; HCT-116 colon; CAKI-1 renal; EKVX NSCLC; NCI-H23 lung; UACC-257 melanoma; NCI-H226 lung; MOLT-4 leukemia.
Common to all, as to experiment: NCI-60 cell line screen, 48 h

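The compound was tested at five concentrations on cells cultured in 96-well plates, with a 48-hour exposure period. Abbreviation: GI50, concentration required for 50% inhibition of growth. The concentration for full growth arrest is given as TGI.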 Bounds are passed on as bounds.

As for `CC1=NNC(=NCCN(C)C)C/C1=C/c1ccccc1Cl`, the TGI in the test with SK-MEL-2 melanoma, in the test on HCC-2998 colon, with HCT-116 colon, in the test with CAKI-1 renal, in the test with EKVX NSCLC and in the test on NCI-H23 lung was greater than 100 µM throughout. The compound further registered a TGI in the test on UACC-257 melanoma of 98 µM.

Take `COc1ccc(SC2c3cc(OC)c(OC)cc3Oc3nc(N)c(C#N)c(N)c32)cc1` (centres undefined): the GI50 in the test on SK-MEL-2 melanoma was 1.36 µM; in the test on HCC-2998 colon, 1.72 µM; in the test with HCT-116 colon, 0.68 µM; in the test with NCI-H226 lung, 1.37 µM; in the test with EKVX NSCLC it was 1.74 µM; with MOLT-4 leukemia it was 0.315 µM. Moreover, the GI50 with NCI-H23 lung was 1.45 µM; in the test with UACC-257 melanoma it was 1.87 µM. Moreover, the TGI in the test on SK-MEL-2 melanoma amounted to 2.8 µM; in the test on HCC-2998 colon it was 3.12 µM; in the test with HCT-116 colon it was 2.16 µM; with NCI-H226 lung it was 2.68 µM; in the test with EKVX NSCLC it was 3.34 µM; in the test on MOLT-4 leukemia, 1.6 µM. Besides, the results for the TGI in the test with NCI-H23 lung and in the test on UACC-257 melanoma were 3.01 µM and 3.32 µM, respectively.

`CC#C[C@@]1(O)CCCC[C@@H]1O`: the TGI with SK-MEL-2 melanoma, with HCC-2998 colon, in the test on HCT-116 colon, in the test on NCI-H226 lung, in the test on EKVX NSCLC and in the test on MOLT-4 leukemia was greater than 100 µM each time. Besides, the TGI in the test with NCI-H23 lung and with UACC-257 melanoma was greater than 100 µM each time.

Consider `CCC1C(C)c2c([nH]c3ccccc23)C2C(=O)N(c3ccccc3)C(=O)C21` (centres undefined), for which the TGI in the test with HCC-2998 colon came out at 28.9 µM; in the test on EKVX NSCLC, 38.3 µM; in the test with MOLT-4 leukemia, 49.3 µM; with NCI-H23 lung, 41.8 µM.

`c1ccc2c(CNCCCCCCNCc3cccc4ccccc34)cccc2c1`: the TGI in the test with SK-MEL-2 melanoma was determined as 3.02 µM; with HCT-116 colon it was 4.35 µM; with CAKI-1 renal, 20.7 µM; with NCI-H226 lung, 31.6 µM; with EKVX NSCLC, 26.4 µM; with MOLT-4 leukemia, 6.46 µM. Besides, the figures for the TGI in the test on NCI-H23 lung and in the test on UACC-257 melanoma were 30.1 µM and 3.17 µM, respectively.

On to `CC(C)[C@@H]1C=C(c2ccccc2)c2ccccc2C1C(C#N)(C#N)C(C)C` (some centres undefined), for which the TGI in the test with SK-MEL-2 melanoma, with HCC-2998 colon, with HCT-116 colon, with NCI-H226 lung, with EKVX NSCLC and in the test with MOLT-4 leukemia was greater than 100 µM in each case. Also, the TGI with NCI-H23 lung and with UACC-257 melanoma was greater than 100 µM throughout.

`CCCCCCCCCCCC(=O)OCC1OC(n2cc(F)c(=O)[nH]c2=O)C(NC(=O)OCc2ccccc2)C(O)C1O` (centres undefined): the TGI with SK-MEL-2 melanoma is 42.5 µM; in the test on HCC-2998 colon, 32.9 µM; with HCT-116 colon, 30.3 µM; in the test on CAKI-1 renal, greater than 100 µM; in the test on EKVX NSCLC, 79.9 µM; in the test with MOLT-4 leukemia, 53.4 µM. Besides, the TGI with NCI-H23 lung turned out to be 93.6 µM; with UACC-257 melanoma it was 50.8 µM.

`N#Cc1cccc(NC(=O)c2ccc(C(=O)O)c(C(=O)c3ccc(C(=O)O)c(C(=O)Nc4cccc(C#N)c4)c3)c2)c1`: the TGI in the test with SK-MEL-2 melanoma, in the test with HCT-116 colon, in the test on CAKI-1 renal, with NCI-H226 lung, in the test on EKVX NSCLC and in the test on MOLT-4 leukemia was greater than 100 µM throughout. The TGI in the test on NCI-H23 lung and in the test on UACC-257 melanoma was greater than 100 µM throughout.

Take `Cc1cc(NS(=O)(=O)c2ccc(Nc3c4ccccc4nc4c(C(=O)Nc5ccc(S(=O)(=O)N=C(N)N)cc5)cccc34)cc2)no1`: the TGI in the test with SK-MEL-2 melanoma, in the test on HCC-2998 colon, with HCT-116 colon, in the test with CAKI-1 renal, with EKVX NSCLC and with MOLT-4 leukemia was greater than 100 µM in each case. Further, the TGI in the test on NCI-H23 lung and in the test with UACC-257 melanoma was greater than 100 µM in each case.

As for `C[Si](C)(C)/C=C/CCC(C=O)(CCCl)c1ccccc1` (centres undefined), the TGI with SK-MEL-2 melanoma is 29.7 µM; in the test with HCC-2998 colon, greater than 100 µM; in the test with HCT-116 colon, 32.3 µM; in the test with EKVX NSCLC, greater than 100 µM; in the test with MOLT-4 leukemia, 53.8 µM; in the test on NCI-H23 lung, greater than 100 µM. In the test with UACC-257 melanoma, this compound displayed a TGI of 75.8 µM.

For `O=C(CC(=O)N1N=C(c2ccccc2)C(N=Nc2ccc(C(=O)O)cc2)C1=O)Nc1ccc(F)cc1` (centres undefined), the TGI in the test with SK-MEL-2 melanoma is 41.8 µM; in the test on HCT-116 colon, 28.8 µM; in the test with CAKI-1 renal it was greater than 100 µM; in the test on NCI-H226 lung, 24 µM; in the test with EKVX NSCLC, 77.1 µM; in the test on NCI-H23 lung, 90.2 µM. The compound further registered a TGI in the test on UACC-257 melanoma greater than 100 µM.

On to `COC(=O)/C=C/C(=O)C1C(C(=O)OC)C2(C(=O)OC)CCC1(C(=O)OC)N2` (centres undefined), for which the TGI in the test on SK-MEL-2 melanoma, in the test on HCC-2998 colon, with HCT-116 colon, in the test on CAKI-1 renal, with EKVX NSCLC and in the test on MOLT-4 leukemia was greater than 100 µM each time. Also, the TGI in the test on NCI-H23 lung was greater than 100 µM.

For the compound `CC1(O)C=CC2CCC1C2O` (centres undefined), the TGI with SK-MEL-2 melanoma is greater than 100 µM; with HCT-116 colon, 36.2 µM; in the test with CAKI-1 renal it was greater than 100 µM; in the test on NCI-H226 lung it was greater than 100 µM; in the test with EKVX NSCLC, greater than 100 µM; in the test with MOLT-4 leukemia, greater than 100 µM. In addition, the TGI in the test on NCI-H23 lung and in the test with UACC-257 melanoma was greater than 100 µM each time.

These data come from PubChem BioAssay (NCI).
